pIC50: −log10 of the molar value.
Assays:
human OCT2 = target: T1, human OCT2 (Homo sapiens, UniProt O15244); assay: Inhibition of metformin uptake in HEK-293 cells overexpressing hOCT2; conditions: for Selectivity category hOCT2 versus hMATEs: comparison of IC50 for hOCT2, hMATE1, hMATE2-K; for Effect on hOCT2 activity at low concentrations (hOCT2-enhancer): low but clinically relevant concentrations (less than 10 μM)
T1 sequence (O15244 1-555): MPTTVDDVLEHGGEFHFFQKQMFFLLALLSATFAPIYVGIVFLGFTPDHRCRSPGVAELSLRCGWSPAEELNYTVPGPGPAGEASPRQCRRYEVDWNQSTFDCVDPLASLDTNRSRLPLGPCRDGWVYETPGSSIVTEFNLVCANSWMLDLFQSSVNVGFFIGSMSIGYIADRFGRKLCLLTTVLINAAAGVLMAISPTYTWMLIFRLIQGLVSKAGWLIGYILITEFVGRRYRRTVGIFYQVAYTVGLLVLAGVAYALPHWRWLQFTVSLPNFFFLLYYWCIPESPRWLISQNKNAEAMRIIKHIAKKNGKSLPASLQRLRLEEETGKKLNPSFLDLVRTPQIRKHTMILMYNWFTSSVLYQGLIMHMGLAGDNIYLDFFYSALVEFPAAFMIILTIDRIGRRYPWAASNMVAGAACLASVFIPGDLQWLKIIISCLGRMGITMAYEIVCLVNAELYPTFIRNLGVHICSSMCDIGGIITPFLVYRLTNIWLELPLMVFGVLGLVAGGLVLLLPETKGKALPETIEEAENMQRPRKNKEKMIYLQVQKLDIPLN

human MATE1 = target: T2, human MATE1 (Homo sapiens, UniProt Q96FL8); assay: Inhibition of metformin uptake in HEK-293 cells overexpressing hMATE1; format: cell-based; conditions: IC50 for inhibition of hMATE1, metformin 50 μM probe substrate, HEK293-hMATE1
T2 sequence (Q96FL8 1-570): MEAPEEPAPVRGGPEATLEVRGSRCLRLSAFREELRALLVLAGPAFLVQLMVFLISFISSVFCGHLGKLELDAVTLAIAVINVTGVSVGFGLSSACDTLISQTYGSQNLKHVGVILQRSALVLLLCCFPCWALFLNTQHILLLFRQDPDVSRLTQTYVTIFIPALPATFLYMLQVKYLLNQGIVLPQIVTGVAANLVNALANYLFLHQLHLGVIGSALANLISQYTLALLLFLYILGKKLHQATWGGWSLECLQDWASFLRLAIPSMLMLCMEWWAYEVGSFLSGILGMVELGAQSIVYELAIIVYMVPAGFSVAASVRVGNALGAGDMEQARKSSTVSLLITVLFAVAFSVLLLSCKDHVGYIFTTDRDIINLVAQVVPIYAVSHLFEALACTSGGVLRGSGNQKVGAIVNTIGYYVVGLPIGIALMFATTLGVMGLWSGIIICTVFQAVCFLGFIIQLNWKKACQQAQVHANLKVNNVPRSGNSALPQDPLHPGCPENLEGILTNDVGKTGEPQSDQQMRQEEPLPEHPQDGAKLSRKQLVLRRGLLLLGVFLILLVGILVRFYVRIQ

human OCT1 = target: T3, human OCT1 (Homo sapiens, UniProt O15245); assay: Inhibition of metformin uptake in HEK-293 cells overexpressing hOCT1; format: cell-based
T3 sequence (O15245 1-554): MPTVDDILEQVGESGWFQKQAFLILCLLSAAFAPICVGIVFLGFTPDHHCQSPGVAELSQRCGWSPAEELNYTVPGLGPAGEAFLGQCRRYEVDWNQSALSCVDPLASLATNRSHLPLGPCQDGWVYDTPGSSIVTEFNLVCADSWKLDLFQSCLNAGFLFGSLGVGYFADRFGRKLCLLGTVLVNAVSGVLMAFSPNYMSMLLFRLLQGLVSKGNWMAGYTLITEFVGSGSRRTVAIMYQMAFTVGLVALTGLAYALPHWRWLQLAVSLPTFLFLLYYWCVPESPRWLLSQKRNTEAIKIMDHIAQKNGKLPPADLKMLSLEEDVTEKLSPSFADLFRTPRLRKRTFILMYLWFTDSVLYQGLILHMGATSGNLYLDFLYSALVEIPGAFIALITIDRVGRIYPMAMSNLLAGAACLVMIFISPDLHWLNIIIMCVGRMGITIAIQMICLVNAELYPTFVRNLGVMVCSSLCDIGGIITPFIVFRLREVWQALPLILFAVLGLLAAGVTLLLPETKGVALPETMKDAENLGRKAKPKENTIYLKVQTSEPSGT

mouse Oct1 = target: T4, mouse Oct1 (Mus musculus, UniProt O08966); assay: Inhibition of metformin uptake in HEK-293 cells overexpressing mouse Oct1; format: cell-based
T4 sequence (O08966 1-556): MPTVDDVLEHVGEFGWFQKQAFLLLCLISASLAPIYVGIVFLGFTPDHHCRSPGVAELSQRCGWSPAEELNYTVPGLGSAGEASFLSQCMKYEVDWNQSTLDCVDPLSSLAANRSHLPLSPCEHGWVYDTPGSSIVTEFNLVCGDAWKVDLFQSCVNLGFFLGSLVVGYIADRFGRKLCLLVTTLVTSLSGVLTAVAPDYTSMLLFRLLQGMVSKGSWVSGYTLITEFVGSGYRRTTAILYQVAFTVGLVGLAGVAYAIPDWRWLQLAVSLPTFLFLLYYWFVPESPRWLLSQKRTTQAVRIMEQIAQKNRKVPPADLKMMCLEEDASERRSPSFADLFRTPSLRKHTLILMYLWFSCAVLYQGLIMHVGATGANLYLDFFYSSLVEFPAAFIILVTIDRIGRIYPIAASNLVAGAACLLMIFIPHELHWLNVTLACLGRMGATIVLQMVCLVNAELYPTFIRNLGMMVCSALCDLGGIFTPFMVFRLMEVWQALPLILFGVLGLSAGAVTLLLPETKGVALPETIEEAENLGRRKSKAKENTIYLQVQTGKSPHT

mouse Oct2 = target: T5, mouse Oct2 (Mus musculus, UniProt O70577); assay: Inhibition of metformin uptake in HEK-293 cells overexpressing mouse Oct2; format: cell-based
T5 sequence (O70577 1-553): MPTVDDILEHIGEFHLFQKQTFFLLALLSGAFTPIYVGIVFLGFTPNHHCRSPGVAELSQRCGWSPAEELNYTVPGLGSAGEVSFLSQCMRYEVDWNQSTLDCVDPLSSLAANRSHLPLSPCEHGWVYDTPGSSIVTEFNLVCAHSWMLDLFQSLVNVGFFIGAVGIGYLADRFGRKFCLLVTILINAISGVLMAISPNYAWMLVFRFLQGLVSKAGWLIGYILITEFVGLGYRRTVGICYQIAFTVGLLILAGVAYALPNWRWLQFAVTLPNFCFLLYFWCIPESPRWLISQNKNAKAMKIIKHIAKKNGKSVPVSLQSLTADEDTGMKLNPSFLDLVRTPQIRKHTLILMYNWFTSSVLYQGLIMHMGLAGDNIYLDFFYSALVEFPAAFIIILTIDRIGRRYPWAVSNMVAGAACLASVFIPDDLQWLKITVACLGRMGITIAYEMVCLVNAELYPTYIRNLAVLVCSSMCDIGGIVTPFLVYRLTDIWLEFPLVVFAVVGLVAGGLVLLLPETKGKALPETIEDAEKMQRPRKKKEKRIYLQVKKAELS

mouse Mate1 = target: T6, mouse Mate1 (Mus musculus, UniProt Q8K0H1); assay: Inhibition of metformin uptake in HEK-293 cells overexpressing mouse Mate1; format: cell-based
T6 sequence (Q8K0H1 1-567): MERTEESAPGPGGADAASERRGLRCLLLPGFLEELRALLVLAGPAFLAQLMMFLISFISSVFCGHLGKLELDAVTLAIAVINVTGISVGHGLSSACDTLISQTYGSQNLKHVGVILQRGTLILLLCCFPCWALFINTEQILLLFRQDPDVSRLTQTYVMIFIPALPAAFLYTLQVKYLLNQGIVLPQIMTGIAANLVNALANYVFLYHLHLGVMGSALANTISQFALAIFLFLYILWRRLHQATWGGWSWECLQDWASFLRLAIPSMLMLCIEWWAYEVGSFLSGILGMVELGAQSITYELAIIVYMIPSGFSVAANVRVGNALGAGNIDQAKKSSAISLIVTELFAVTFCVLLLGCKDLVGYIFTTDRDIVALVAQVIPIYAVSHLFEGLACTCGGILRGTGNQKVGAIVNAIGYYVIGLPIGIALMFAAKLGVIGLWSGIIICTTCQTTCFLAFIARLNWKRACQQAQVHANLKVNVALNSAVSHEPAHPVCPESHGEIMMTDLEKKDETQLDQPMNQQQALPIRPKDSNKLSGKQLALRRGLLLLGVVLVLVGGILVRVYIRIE

[1] = Metformin pharmacokinetics in mice with carvedilol; format: in vivo, mouse; conditions: carvedilol 2 mg/kg; at 30, 45 and 60 min
HEK-hOCT2 cells [2] = assay: Cisplatin accumulation in HEK-hOCT2 cells; format: cell-based, human; conditions: carvedilol 10 μM + cisplatin 100 μM 2 h, then 22 h normal medium
HEK-control cells = assay: Cisplatin accumulation in HEK-control cells; format: cell-based, human; conditions: carvedilol 10 μM + cisplatin 100 μM 2 h, then 22 h normal medium
HEK-hOCT2 cells [3] = assay: Cisplatin cytotoxicity, cell viability by CCK-8; format: cell-based, human; conditions: carvedilol 10 μM + cisplatin 100 μM 2 h, then 22 h
C57BL/6J mice = assay: Cisplatin-induced nephrotoxicity in mice; format: in vivo, mouse; conditions: 72 h
[4] = cited from earlier work
[5] = carvedilol 2 mg/kg x2 + cisplatin 10 mg/kg

Structure (SMILES): CCCCOc1ccc(CC(=O)NO)cc1 [Bufexamac]
- Selectivity category hOCT2 versus hMATEs (human OCT2): selective hOCT2 inhibitors

Structure (SMILES): COc1ccccc1OCCNCC(O)COc1cccc2[nH]c3ccccc3c12 (stereo not shown) [Carvedilol]
- pIC50 (human MATE1): 3.99
- pIC50 (human OCT1): 5.19
- pIC50 (mouse Oct1): 5.55
- pIC50 (mouse Oct2): 4.64
- pIC50 (mouse Mate1): 4.17
- Plasma concentrations of metformin compared to vehicle [1]: significantly increased
- Accumulation of cisplatin in HEK-hOCT2 stable cells (HEK-hOCT2 cells [2]): 3.77 ± 0.02 ppm/mg protein
- Accumulation of cisplatin in control cells (HEK-control cells): 3.87 ± 0.06 ppm/mg protein
- Cell viability of cisplatin-treated HEK-hOCT2 cells with co-treatment (HEK-hOCT2 cells [3]): significantly rescued
- Kidney histology (renal damage), co-administration (C57BL/6J mice; [5]): substantially ameliorated
- Kim-1 gene transcripts in kidney, co-administration (C57BL/6J mice; [5]): almost be brought down to the normal base
- Kidney histology, treatment-only group (C57BL/6J mice; carvedilol only): No visible morphological change
- Time to peak plasma concentration ([4]; after oral administration): 1—2 h
- Oral bioavailability ([4]; human, oral): 24%
- Plasma binding ([4]; mostly bound to albumin): approximately 95%
- Terminal half-life ([4]; oral administration): 6—10 h
- Selectivity category hOCT2 versus hMATEs (human OCT2): selective hOCT2 inhibitors

Structure (SMILES): C(=C\c1ccccc1)/CN1CCN(C(c2ccccc2)c2ccccc2)CC1 [Cimnasizine]
- Effect on hOCT2-mediated metformin uptake at high concentrations (human OCT2): could inhibit hOCT2-mediated metformin uptake
- Effect on hOCT2 activity at low concentrations (hOCT2-enhancer) (human OCT2): increase hOCT2 activity

Structure (SMILES): CC(C)C(=O)Nc1ccc([N+](=O)[O-])c(C(F)(F)F)c1 [Flutamide]
- Selectivity category hOCT2 versus hMATEs (human OCT2): selective hOCT2 inhibitors

Structure (SMILES): CCC(C)n1ncn(-c2ccc(N3CCN(c4ccc(OCC5COC(Cn6cncn6)(c6ccc(Cl)cc6Cl)O5)cc4)CC3)cc2)c1=O (stereo not shown) [Itraconazole]
- Effect on hOCT2-mediated metformin uptake at high concentrations (human OCT2): could inhibit hOCT2-mediated metformin uptake
- Effect on hOCT2 activity at low concentrations (hOCT2-enhancer) (human OCT2): increase hOCT2 activity

Structure (SMILES): CC(C)(C)NC(=O)[C@@H]1C[C@@H]2CCCC[C@@H]2CN1C[C@@H](O)[C@H](Cc1ccccc1)NC(=O)[C@H](CC(N)=O)NC(=O)c1ccc2ccccc2n1 [Saquinavir]
- Effect on hOCT2-mediated metformin uptake at high concentrations (human OCT2): could inhibit hOCT2-mediated metformin uptake
- Effect on hOCT2 activity at low concentrations (hOCT2-enhancer) (human OCT2): increase hOCT2 activity

From article PMC6295285 (Pharmaceutical research, 2018)
